From paper PMC8372318, “Automated affinity selection for rapid discovery of peptide binders” (Chemical Science, 2021) come the findings set out here.

Square brackets hold non-standard residues; d marks the D form. Ends that are not written are not given here. Peptide text beside a SMILES is read from it. * marks the point of attachment. Biotin = O=C1N[C@H]2[C@H](CS[C@H]2CCCCC(=O)*)N1; Phe(4-CH2NH2) = NCc1ccc(C[C@H](N)C(=O)O)cc1; Arg(Me2s) = CN=C(NC)NCCC[C@H](N)C(=O)O; hArg = N=C(N)NCCCC[C@H](N)C(=O)O; Cha = N[C@@H](CC1CCCCC1)C(=O)O; Lys(Me) = CNCCCC[C@H](N)C(=O)O; Cba = N[C@@H](CC1CCC1)C(=O)O; PEG4 = NCCOCCOCCOCCOCCC(=O)O; Pip = O=C(O)[C@@H]1CCCCN1; Dab = NCC[C@H](N)C(=O)O Some results are limits rather than exact numbers.

The chains are these.
T1: tMBM3 (truncated MLL menin binding motif) (Homo sapiens, also: additional C-terminal Arg)
T1 chain: RFPARPR

T2: recombinant menin protein (Homo sapiens, UniProt O00255)
T2 sequence (O00255 1-610): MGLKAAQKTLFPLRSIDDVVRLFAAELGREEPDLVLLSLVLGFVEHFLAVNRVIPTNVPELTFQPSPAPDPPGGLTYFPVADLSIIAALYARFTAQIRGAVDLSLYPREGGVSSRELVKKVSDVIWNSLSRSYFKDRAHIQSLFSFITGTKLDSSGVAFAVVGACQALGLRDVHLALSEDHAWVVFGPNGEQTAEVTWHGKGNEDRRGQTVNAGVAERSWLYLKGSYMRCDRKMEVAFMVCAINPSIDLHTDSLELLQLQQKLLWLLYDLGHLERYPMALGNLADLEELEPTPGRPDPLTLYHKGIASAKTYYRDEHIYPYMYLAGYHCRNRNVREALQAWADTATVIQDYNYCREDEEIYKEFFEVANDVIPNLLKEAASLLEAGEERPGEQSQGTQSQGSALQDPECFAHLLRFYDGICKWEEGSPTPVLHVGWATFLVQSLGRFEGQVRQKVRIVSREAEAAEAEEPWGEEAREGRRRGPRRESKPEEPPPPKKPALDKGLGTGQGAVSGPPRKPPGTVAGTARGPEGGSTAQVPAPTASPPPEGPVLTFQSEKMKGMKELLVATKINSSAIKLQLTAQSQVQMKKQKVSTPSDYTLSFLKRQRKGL

B1: menin (protein)
chain: MGLKAAQKTLFPLRSIDDVVRLFAAELGREEPDLVLLSLVLGFVEHFLAVNRVIPTNVPELTFQPSPAPDPPGGLTYFPVADLSIIAALYARFTAQIRGAVDLSLYPREGGVSSRELVKKVSDVIWNSLSRSYFKDRAHIQSLFSFITGTKLDSSGVAFAVVGACQALGLRDVHLALSEDHAWVVFGPNGEQTAEVTWHGKGNEDRRGQTVNAGVAERSWLYLKGSYMRCDRKMEVAFMVCAINPSIDLHTDSLELLQLQQKLLWLLYDLGHLERYPMALGNLADLEELEPTPGRPDPLTLYHKGIASAKTYYRDEHIYPYMYLAGYHCRNRNVREALQAWADTATVIQDYNYCREDEEIYKEFFEVANDVIPNLLKEAASLLEAGEERPGEQSQGTQSQGSALQDPECFAHLLRFYDGICKWEEGSPTPVLHVGWATFLVQSLGRFEGQVRQKVRIVSREAEAAEAEEPWGEEAREGRRRGPRRESKPEEPPPPKKPALDKGLGTGQGAVSGPPRKPPGTVAGTARGPEGGSTAQVPAPTASPPPEGPVLTFQSEKMKGMKELLVATKINSSAIKLQLTAQSQVQMKKQKVSTPSDYTLSFLKRQRKGL

One may read the Kd as the equilibrium constant for the complex coming apart.

Sequence of human ACE2 (Q9BYF1 18-805): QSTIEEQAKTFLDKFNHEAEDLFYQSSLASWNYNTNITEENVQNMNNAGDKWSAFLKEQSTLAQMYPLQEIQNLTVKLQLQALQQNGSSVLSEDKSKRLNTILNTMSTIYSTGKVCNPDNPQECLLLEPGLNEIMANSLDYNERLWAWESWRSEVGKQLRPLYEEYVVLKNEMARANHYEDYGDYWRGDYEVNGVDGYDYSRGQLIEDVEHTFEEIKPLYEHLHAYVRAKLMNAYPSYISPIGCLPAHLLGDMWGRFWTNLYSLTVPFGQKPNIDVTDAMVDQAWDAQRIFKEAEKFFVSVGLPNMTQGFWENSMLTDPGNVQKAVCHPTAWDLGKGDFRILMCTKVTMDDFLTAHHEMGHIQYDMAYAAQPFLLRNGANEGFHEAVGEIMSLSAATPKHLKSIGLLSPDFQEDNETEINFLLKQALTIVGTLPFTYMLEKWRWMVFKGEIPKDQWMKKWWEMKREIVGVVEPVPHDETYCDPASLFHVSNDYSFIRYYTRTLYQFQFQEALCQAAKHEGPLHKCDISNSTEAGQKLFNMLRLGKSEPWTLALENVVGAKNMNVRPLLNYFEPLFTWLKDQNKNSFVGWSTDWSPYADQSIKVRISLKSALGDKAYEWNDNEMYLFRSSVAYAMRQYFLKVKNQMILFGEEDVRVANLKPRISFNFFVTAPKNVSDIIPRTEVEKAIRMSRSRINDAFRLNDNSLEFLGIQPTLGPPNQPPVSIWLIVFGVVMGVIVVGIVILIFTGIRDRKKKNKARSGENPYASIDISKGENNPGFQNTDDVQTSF

The first experiment has as its target T1, tMBM3 (truncated MLL menin binding …). Put plainly: BLI.
Conditions: not given
Molecule B1 gave an equilibrium dissociation constant (Kd) of more than 3800 nM.

In the next experiment the target is T2, recombinant menin protein. Put plainly: Bio-layer interferometry peptide-binding validation (Octet RED96).
Conditions: not given
`C[C@H](NC(=O)[C@@H]1CCCN1C(=O)[C@H](Cc1ccccc1)NC(=O)[C@H](CCCNC(=N)N)NC(=O)[C@H](Cc1c[nH]c2ccccc12)NC(=O)[C@@H](N)CCCNC(=N)N)C(=O)N[C@@H](CCCNC(=N)N)C(=O)N1CCC[C@H]1C(N)=O` [MBM1, reference compound] (H-RWRFPARP-NH2): the equilibrium dissociation constant (Kd) was 30 nM.
On the same count and under the same terms, the result for `CC(C)[C@H](NC(=O)[C@@H]1CCCCN1C(=O)[C@H](CC1CCC1)NC(=O)[C@H](CCCNC(=N)N)NC(=O)CCOCCOCCOCCOCCNC(=O)CCCC[C@@H]1SC[C@@H]2NC(=O)N[C@@H]21)C(=O)N[C@@H](CCCNC(=N)N)C(=O)N1CCCC[C@H]1C(=O)N[C@@H](CCCNC(=N)N)C(N)=O` [hit 1] ({Biotin-PEG4}-R[Cba][Pip]VR[Pip]R-NH2) reads 34 nM; that for `CN=C(NC)NCCC[C@H](NC(=O)[C@@H](NC(=O)[C@@H]1CCCCN1C(=O)[C@H](CC1CCCCC1)NC(=O)[C@H](CCCCN)NC(=O)CCOCCOCCOCCOCCNC(=O)CCCC[C@@H]1SC[C@@H]2NC(=O)N[C@@H]21)C(C)C)C(=O)N1CCCC[C@H]1C(=O)N[C@@H](CCCNC(=N)N)C(N)=O` [hit 6-1] ({Biotin-PEG4}-K[Cha][Pip]V[Arg(Me2s)][Pip]R-NH2), 20 nM.
Still for that read-out and setting: to `CC(C)[C@H](NC(=O)[C@@H]1CCCCN1C(=O)[C@H](CC1CCCCC1)NC(=O)[C@H](CCN)NC(=O)CCOCCOCCOCCOCCNC(=O)CCCC[C@@H]1SC[C@@H]2NC(=O)N[C@@H]21)C(=O)N[C@@H](CCCNC(=N)N)C(=O)N1CCCC[C@H]1C(=O)N[C@@H](Cc1ccc(CN)cc1)C(N)=O` [hit 6-2] ({Biotin-PEG4}-[Dab][Cha][Pip]VR[Pip][Phe(4-CH2NH2)]-NH2) belongs 45 nM.
On the same count and under the same terms, the result for `CC(C)[C@H](NC(=O)[C@@H]1CCCCN1C(=O)[C@H](CC1CCCCC1)NC(=O)[C@H](CCN)NC(=O)CCOCCOCCOCCOCCNC(=O)CCCC[C@@H]1SC[C@@H]2NC(=O)N[C@@H]21)C(=O)N[C@@H](CCCCNC(=N)N)C(=O)N1CCCC[C@H]1C(=O)N[C@@H](CCCNC(=N)N)C(N)=O` [hit 6-3] ({Biotin-PEG4}-[Dab][Cha][Pip]V[hArg][Pip]R-NH2) reads 34 nM; that for `CNCCCC[C@H](NC(=O)[C@@H](NC(=O)[C@@H]1CCCCN1C(=O)[C@H](CC1CCCCC1)NC(=O)[C@H](CCCCN)NC(=O)CCOCCOCCOCCOCCNC(=O)CCCC[C@@H]1SC[C@@H]2NC(=O)N[C@@H]21)C(C)C)C(=O)N1CCCC[C@H]1C(=O)N[C@@H](CCCNC(=N)N)C(N)=O` [hit 6-4] ({Biotin-PEG4}-K[Cha][Pip]V[Lys(Me)][Pip]R-NH2), 87 nM; that for `CNCCCC[C@H](NC(=O)[C@@H](NC(=O)[C@@H]1CCCCN1C(=O)[C@H](CC1CCCCC1)NC(=O)[C@H](Cc1c[nH]cn1)NC(=O)CCOCCOCCOCCOCCNC(=O)CCCC[C@@H]1SC[C@@H]2NC(=O)N[C@@H]21)C(C)C)C(=O)N1CCCC[C@H]1C(=O)N[C@@H](CCCNC(=N)N)C(N)=O` [hit 6-5] ({Biotin-PEG4}-H[Cha][Pip]V[Lys(Me)][Pip]R-NH2), 110 nM.
As for `CC(C)[C@H](NC(=O)[C@@H]1CCCCN1C(=O)[C@H](CC1CCCCC1)NC(=O)[C@H](CCCNC(=N)N)NC(=O)CCOCCOCCOCCOCCNC(=O)CCCC[C@@H]1SC[C@@H]2NC(=O)N[C@@H]21)C(=O)N[C@@H](CCCNC(=N)N)C(=O)N1CCCC[C@H]1C(=O)N[C@@H](CCCNC(=N)N)C(N)=O` [hit 6] ({Biotin-PEG4}-R[Cha][Pip]VR[Pip]R-NH2), the dissociation constant Kd turned out to be 40 nM.
Regarding `C[C@H](NC(=O)[C@@H]1CCCN1C(=O)[C@H](Cc1ccccc1)NC(=O)[C@H](CCCNC(=N)N)NC(=O)[C@H](Cc1c[nH]c2ccccc12)NC(=O)[C@@H](N)CCCNC(=N)N)C(=O)N[C@@H](CCCNC(=N)N)C(=O)N1CCC[C@H]1C(=O)N[C@@H](CCCNC(=N)N)C(N)=O` [tMBM1] (H-RWRFPARPR-NH2), the Kd worked out at 14 nM.
Same read-out and setting: the result for `C[C@H](NC(=O)[C@@H]1CCCN1C(=O)[C@H](Cc1ccccc1)NC(=O)[C@H](CCCNC(=N)N)NC(=O)[C@H](Cc1c[nH]c2ccccc12)NC(=O)CCOCCOCCOCCOCCNC(=O)CCCC[C@@H]1SC[C@@H]2NC(=O)N[C@@H]21)C(=O)N[C@@H](CCCNC(=N)N)C(=O)N1CCC[C@H]1C(=O)N[C@@H](CCCNC(=N)N)C(N)=O` [tMBM2] ({Biotin-PEG4}-WRFPARPR-NH2) reads 67 nM.
With `C[C@H](NC(=O)[C@@H]1CCCN1C(=O)[C@H](Cc1ccccc1)NC(=O)[C@H](CCCNC(=N)N)NC(=O)CCOCCOCCOCCOCCNC(=O)CCCC[C@@H]1SC[C@@H]2NC(=O)N[C@@H]21)C(=O)N[C@@H](CCCNC(=N)N)C(=O)N1CCC[C@H]1C(=O)N[C@@H](CCCNC(=N)N)C(N)=O` [tMBM3] ({Biotin-PEG4}-RFPARPR-NH2), the “KD (nM), apparent dissociation constant” value came out at 3800 nM and the equilibrium dissociation constant (Kd) was more than 3800 nM.

Another experiment has as its target human ACE2 (Homo sapiens, UniProt Q9BYF1).
Experiment: not given
It is filed as binding. The settings on record: highest tested peptide concentration 1000 nM; also biosensor alone.
On to YPYDVPDYAK [HA tag], for which the “capture by control protein” value is recorded as “not captured”.
